Measurements published in patent US12435104B2, “Cyclic dinucleotides as sting agonists” (BEIGENE, LTD., priority 2019, dated 2025).
Where a name gives a salt, the structure may show the parent alone.

What was measured:
[1] = system: STING in THP1-Dual Cells; test: STING cellular assay in THP1-Dual cells (ISG54-Lucia luciferase reporter); settings: Homo sapiens, 24 h, read-out: Cellular activity EC50 in THP1-Dual Cells
[2] = system: hSTING-R232 in THP1-Dual KI-hSTING-R232 Cells; test: STING cellular assay in THP1-Dual KI-hSTING-R232 cells (Lucia luciferase reporter); settings: Homo sapiens, THP1-Dual KI-hSTING-R232, 24 h, read-out: Cellular activity EC50 in THP1-Dual KI-hSTING-R232 Cells

Compound	EC50 [1]	EC50 [2]
Nc1nc2c(ncn2[C@@H]2O[C@@H]3COP(=O)(O)O[C@H]4[C@H](n5cnc6c(N)ncnc65)O[C@H](COP(=O)(O)O[C@H]3[C@H]2O)[C@]42CC2(F)F)c(=O)[nH]1 [Example 1, 2-amino-9-((1R,5′S,7′R,8′R,12a′R,14′R,15′R,15a′S)-7′-(6-amino-9H-purin-9-yl)-2,2-difluoro-2′,10′,15′-trihydroxy-2′,10′-dioxidooctahydro-12′H-spiro[cyclopropane-1,16′-[5,8]methanofuro[3,2-1][1,3,6,9,11]pentaoxa[2,10]diphosphacyclotetradecin]-14′-yl)-1,9-dihydro-6H-purin-6-one triethylamine salt]	2680 nM	3210 nM
Nc1nc2c(ncn2[C@@H]2O[C@@H]3CO[P@@](O)(=S)O[C@H]4[C@H](n5cnc6c(N)ncnc65)O[C@H](COP(O)(=S)O[C@H]3[C@H]2F)[C@]42CC2(F)F)c(=O)[nH]1 (stereo partly drawn) [Example 2, 2-amino-9-((1R,5′S,7′R,8′R,10′R,12a′R,14′R,15′R,15a′R)-7′-(6-amino-9H-purin-9-yl)-2,2,15′-trifluoro-2′,10′-dihydroxy-2′,10′-disulfidooctahydro-12′H-spiro[cyclopropane-1,16′-[5,8]methanofuro[3,2-1][1,3,6,9,11]pentaoxa[2,10]diphosphacyclotetradecin]-14′-yl)-1,9-dihydro-6H-purin-6-one]	1760 nM	2320 nM
